Laboratory results as given in patent US20230151025A1, “SUBSTITUTED THIAZOLOPYRIDINES, SALTS THEREOF AND THEIR USE AS HERBICIDALLY ACTIVE SUBSTANCES” (Bayer Aktiengesellschaft, priority 2020, published 2023).

Tests used:
Assay type in all cases: in vivo
Veronica persica (VERPE) [1] = assay: Herbicidal pre-emergence action (C), 320 g/ha; details: ca. 3 weeks
Procedure, shortened: (§1)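 Seeds sown in sandy loam and covered with soil; compounds formulated as WP or EC were sprayed onto the covering soil as aqueous suspension/emulsion with 0.5% additive at 600 l water/ha. Pots kept in greenhouse; damage graded visually after ca. 3 weeks versus untreated controls (0% = as control, 100% = plants dead).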

Setaria viridis (SETVI) [2] = assay: Herbicidal pre-emergence action (C), 320 g/ha; details: ca. 3 weeks
Procedure, shortened: as §1

[3] = tested on: Polygonum convolvulus (POLCO); assay: Herbicidal pre-emergence action (C), 320 g/ha; details: ca. 3 weeks
Procedure, shortened: as §1

Viola tricolor (VIOTR) [4] = assay: Herbicidal pre-emergence action (C), 320 g/ha; details: ca. 3 weeks
Procedure, shortened: as §1

[5] = tested on: Echinochloa crus-galli (ECHCG); assay: Herbicidal pre-emergence action (C), 320 g/ha; details: ca. 3 weeks
Procedure, shortened: as §1

[6] = tested on: Abutilon theophrasti (ABUTH); assay: Herbicidal pre-emergence action (C), 320 g/ha; details: ca. 3 weeks
Procedure, shortened: as §1

[7] = tested on: Amaranthus retroflexus (AMARE); assay: Herbicidal pre-emergence action (C), 320 g/ha; details: ca. 3 weeks
Procedure, shortened: as §1

Stellaria media (STEME) [8] = assay: Herbicidal pre-emergence action (C), 320 g/ha; details: visual grading after ca. 3 weeks vs untreated controls, 100% = plants have died off, 0% = as control plants
Procedure, shortened: as §1

Lolium rigidum (LOLRI) [9] = assay: Herbicidal pre-emergence action (C), 320 g/ha; details: ca. 3 weeks
Procedure, shortened: as §1

[10] = tested on: Alopecurus myosuroides (ALOMY); assay: Herbicidal pre-emergence action (C), 320 g/ha; details: ca. 3 weeks
Procedure, shortened: as §1

[11] = tested on: Matricaria inodora (MATIN); assay: Herbicidal pre-emergence action (C), 320 g/ha; details: ca. 3 weeks
Procedure, shortened: as §1

Avena fatua [12] = assay: Herbicidal post-emergence action (D), 320 g/ha; details: ca. 3 weeks
Text: (§2) Seeds of mono- and dicotyledonous weed plants and crop plants were sown, in plastic or organic planting pots, in sandy loam, covered with soil and grown in a greenhouse under controlled growth conditions. 2 to 3 weeks after sowing, the test plants were sprayed in the single-leaf stage. The compounds according to the invention, formulated in form of wettable powders (WP) or as emulsifiable concentrates (EC), were sprayed onto the green plant parts as aqueous suspension or emulsion, with the addition of 0.5% of an additive, at an application rate of 600 l of water/ha (converted). The test plants were placed in the greenhouse for ca. 3 weeks under optimum growth conditions, and then the effect of the preparations was assessed visually in comparison with untreated controls (herbicidal effect in percent (%): 100% effect=plants have died off, 0% effect=as control plants).
(§3) Tables D1 to D13 below show the effects of selected compounds of the general formula (I) according to table 1 on various harmful plants and an application rate corresponding to 320 g/ha obtained by the experimental procedure mentioned above.

[13] = tested on: Digitaria sanguinalis (DIGSA); assay: Herbicidal post-emergence action (D), 320 g/ha; details: ca. 3 weeks
Text: as §2, §3

Avena fatua [14] = assay: Herbicidal pre-emergence action (C), 320 g/ha; details: ca. 3 weeks
Procedure, shortened: (§4)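 Weed and crop seeds sown in sandy loam; WP or EC formulations applied pre-emergence to the soil surface as aqueous suspension/emulsion with 0.5% additive at 600 l water/ha. Greenhouse-grown under optimum conditions; damage visually scored after ca. 3 weeks versus untreated controls (0% = as control, 100% = plants dead).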

[15] = tested on: Digitaria sanguinalis (DIGSA); assay: Herbicidal pre-emergence action (C), 320 g/ha; details: ca. 3 weeks
Procedure, shortened: as §4

Veronica persica (VERPE) [16] = assay: Herbicidal post-emergence action (D), 320 g/ha; details: ca. 3 weeks
Procedure, shortened: (§5)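 Post-emergence greenhouse test. Sandy loam; spray at single-leaf stage (2–3 wk after sowing); WP or EC in water + 0.5% additive, 600 l/ha. Visual rating ~3 wk post-spray, % effect vs untreated (0 = control, 100 = dead).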

Setaria viridis (SETVI) [17] = assay: Herbicidal post-emergence action (D), 320 g/ha; details: ca. 3 weeks
Procedure, shortened: as §5

[18] = tested on: Polygonum convolvulus (POLCO); assay: Herbicidal post-emergence action (D), 320 g/ha; details: ca. 3 weeks
Procedure, shortened: as §5

Viola tricolor (VIOTR) [19] = assay: Herbicidal post-emergence action (D), 320 g/ha; details: ca. 3 weeks
Procedure, shortened: as §5

[20] = tested on: Echinochloa crus-galli (ECHCG); assay: Herbicidal post-emergence action (D), 320 g/ha; details: ca. 3 weeks
Procedure, shortened: as §5

[21] = tested on: Abutilon theophrasti (ABUTH); assay: Herbicidal post-emergence action (D), 320 g/ha; details: ca. 3 weeks
Procedure, shortened: as §5

[22] = tested on: Amaranthus retroflexus (AMARE); assay: Herbicidal post-emergence action (D), 320 g/ha; details: ca. 3 weeks
Procedure, shortened: as §5

Stellaria media (STEME) [23] = assay: Herbicidal post-emergence action (D), 320 g/ha; details: ca. 3 weeks
Procedure, shortened: as §5

Lolium rigidum (LOLRI) [24] = assay: Herbicidal post-emergence action (D), 320 g/ha; details: ca. 3 weeks
Procedure, shortened: as §5

[25] = tested on: Alopecurus myosuroides (ALOMY); assay: Herbicidal post-emergence action (D), 320 g/ha; details: ca. 3 weeks
Procedure, shortened: as §5

[26] = tested on: Matricaria inodora (MATIN); assay: Herbicidal post-emergence action (D), 320 g/ha; details: single-leaf stage, assessed visually after ca. 3 weeks vs untreated controls, 100% = plants have died off, 0% = as control plants
Procedure, shortened: as §5

Veronica persica (VERPE) [27] = assay: Herbicidal pre-emergence action (A), 1280 g/ha; details: visual grading after ca. 3 weeks vs untreated controls
Procedure, shortened: (§6)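 Pre-emergence soil-surface spray, 600 l/ha water, 0.5% additive, WP or EC formulation. Sandy loam, double sowing per pot, greenhouse under optimum growth. Visual % damage at ~3 wk vs untreated; 100% = plants died off.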

Setaria viridis (SETVI) [28] = assay: Herbicidal pre-emergence action (A), 1280 g/ha; details: visual grading after ca. 3 weeks vs untreated controls
Procedure, shortened: as §6

[29] = tested on: Kochia scoparia (KCHSC; Bassia scoparia); assay: Herbicidal pre-emergence action (A), 1280 g/ha; details: visual grading after ca. 3 weeks vs untreated controls
Procedure, shortened: as §6

[30] = tested on: Echinochloa crus-galli (ECHCG); assay: Herbicidal pre-emergence action (A), 1280 g/ha; details: visual grading after ca. 3 weeks vs untreated controls, 100% = plants have died off, 0% = as control plants
Procedure, shortened: as §6

Poa annua (POAAN) [31] = assay: Herbicidal pre-emergence action (A), 1280 g/ha; details: visual grading after ca. 3 weeks vs untreated controls, 100% = plants have died off, 0% = as control plants
Procedure, shortened: as §6

Stellaria media (STEME) [32] = assay: Herbicidal pre-emergence action (A), 1280 g/ha; details: visual grading after ca. 3 weeks vs untreated controls
Procedure, shortened: as §6

Lolium rigidum (LOLRI) [33] = assay: Herbicidal pre-emergence action (A), 1280 g/ha; details: visual grading after ca. 3 weeks vs untreated controls, 100% = plants have died off, 0% = as control plants
Procedure, shortened: as §6

[34] = tested on: Alopecurus myosuroides (ALOMY); assay: Herbicidal pre-emergence action (A), 1280 g/ha; details: visual grading after ca. 3 weeks vs untreated controls, 100% = plants have died off, 0% = as control plants
Procedure, shortened: as §6

[35] = tested on: Matricaria inodora (MATIN); assay: Herbicidal pre-emergence action (A), 1280 g/ha; details: visual grading after ca. 3 weeks vs untreated controls
Procedure, shortened: as §6

Veronica persica (VERPE) [36] = assay: Herbicidal post-emergence action (B), 1280 g/ha
Procedure, shortened: (§7)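 Percent activity is a visual score taken about 3 weeks after treatment, relative to untreated plants, where 100% means the plants died and 0% means no difference from controls. Plants were sprayed on green parts at the one-leaf stage with an aqueous suspension or emulsion containing 0.5% additive at 600 L/ha.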

[37] = tested on: Kochia scoparia (KCHSC; Bassia scoparia); assay: Herbicidal post-emergence action (B), 1280 g/ha
Procedure, shortened: as §7

[38] = tested on: Echinochloa crus-galli (ECHCG); assay: Herbicidal post-emergence action (B), 1280 g/ha; details: rated visually after about 3 weeks vs untreated controls
Procedure, shortened: as §7

[39] = tested on: Abutilon theophrasti (ABUTH); assay: Herbicidal post-emergence action (B), 1280 g/ha; details: rated visually after about 3 weeks vs untreated controls
Procedure, shortened: as §7

Poa annua (POAAN) [40] = assay: Herbicidal post-emergence action (B), 1280 g/ha; details: rated visually after about 3 weeks vs untreated controls
Procedure, shortened: as §7

[41] = tested on: Amaranthus retroflexus (AMARE); assay: Herbicidal post-emergence action (B), 1280 g/ha; details: rated visually after about 3 weeks vs untreated controls
Procedure, shortened: as §7

Stellaria media (STEME) [42] = assay: Herbicidal post-emergence action (B), 1280 g/ha
Procedure, shortened: as §7

[43] = tested on: Alopecurus myosuroides (ALOMY); assay: Herbicidal post-emergence action (B), 1280 g/ha; details: rated visually after about 3 weeks vs untreated controls
Procedure, shortened: as §7

| Compound | herbicidal effect VERPE (Veronica persica (VERPE) [1]) [%] | herbicidal effect SETVI (Setaria viridis (SETVI) [2]) [%] | herbicidal effect POLCO [3] [%] | herbicidal effect VIOTR (Viola tricolor (VIOTR) [4]) [%] | herbicidal effect ECHCG [5] [%] | herbicidal effect ABUTH [6] [%] | herbicidal effect AMARE [7] [%] | herbicidal effect LOLRI (Lolium rigidum (LOLRI) [9]) [%] | herbicidal effect ALOMY [10] [%] | herbicidal effect MATIN [11] [%] | herbicidal effect AVEFA (Avena fatua [12]) [%] | herbicidal effect AVEFA (Avena fatua [14]) [%] | herbicidal effect VERPE (Veronica persica (VERPE) [16]) [%] | herbicidal effect SETVI (Setaria viridis (SETVI) [17]) [%] | herbicidal effect POLCO [18] [%] | herbicidal effect VIOTR (Viola tricolor (VIOTR) [19]) [%] | herbicidal effect ECHCG [20] [%] | herbicidal effect ABUTH [21] [%] | herbicidal effect LOLRI (Lolium rigidum (LOLRI) [24]) [%] | herbicidal effect ALOMY [25] [%] | further results |
| --- | --- | --- | --- | --- | --- | --- | --- | --- | --- | --- | --- | --- | --- | --- | --- | --- | --- | --- | --- | --- | --- |
| Cc1cc2scnc2nc1-c1ccccc1F [Example I-002] | 90 | 100 | 90 | 80 | 100 | 90 | 90 | 100 | 100 | 90 | 80 | 100 | 80 | 90 | 90 | 80 | 100 | 80 | 80 | 90 | STEME, herbicidal effect in percent (%) (Stellaria media (STEME) [8]): 90%; herbicidal effect DIGSA [13]: 90%; herbicidal effect DIGSA [15]: 100%; herbicidal effect AMARE [22]: 90%; herbicidal effect STEME (Stellaria media (STEME) [23]): 90%; MATIN, herbicidal effect in percent (%) [26]: 80% |
| Fc1cccc(F)c1-c1nc2ncsc2cc1Cl [Example I-087] | 90 | 100 | 90 | 80 | 100 | 90 | 80 | 100 | 100 | 90 | 80 | 80 | 90 | 90 | 90 | 80 | 90 | 80 | 80 | 90 |  |
| Cc1ccsc1-c1nc2ncsc2cc1Cl [Example I-192] | 90 | 100 |  |  | 100 |  | 100 | 100 | 100 |  | 80 |  | 80 | 80 |  |  | 100 |  |  | 90 | herbicidal effect VERPE (Veronica persica (VERPE) [27]): 90%; herbicidal effect SETVI (Setaria viridis (SETVI) [28]): 100%; herbicidal effect KCHSC [29]: 100%; ECHCG, herbicidal effect in percent (%) [30]: 100%; POAAN, herbicidal effect in percent (%) (Poa annua (POAAN) [31]): 100%; herbicidal effect STEME (Stellaria media (STEME) [32]): 100%; LOLRI, herbicidal effect in percent (%) (Lolium rigidum (LOLRI) [33]): 100%; ALOMY, herbicidal effect in percent (%) [34]: 100%; herbicidal effect MATIN [35]: 100%; herbicidal effect VERPE (Veronica persica (VERPE) [36]): 100%; herbicidal effect KCHSC [37]: 90%; herbicidal activity ECHCG [38]: 100%; herbicidal activity ABUTH [39]: 100%; herbicidal activity POAAN (Poa annua (POAAN) [40]): 90%; herbicidal activity AMARE [41]: 100%; herbicidal effect STEME (Stellaria media (STEME) [42]): 90%; herbicidal activity ALOMY [43]: 100% |
